Assays:
Jurkat cells = experiment: IL-2 release assay, Jurkat cells stimulated with anti-CD3/anti-CD28; type: cell-based, human; settings: for IL-2 levels, Mean: mean of three replicates normalized to the vehicle control
Description: Interleukin-2 (IL-2) release assays were conducted by Eurofins Pan Labs to determine ability for the analogues to inhibit IL-2 secretion from Jurkat cells following stimulation with anti-CD3 and anti-CD28 for a period of 24 hours. Data shown are means of three replicates normalized to the vehicle control
1) Cryopreserved Jurkat cells were thawed and cultured according to established protocols for four days at 37°C, 5% CO2 prior to assay.
2) Jurkat cells were harvested and seeded into 96-well plates at a density of 2x10^5 cells/well with […]
penicillin/streptomycin, and 2 mM L-glutamine).
3) Cells were incubated at 37°C, 5% CO2 for 1 hour prior to the addition of test agents.
4) The test agents were serially diluted in DMSO to 1000X assay concentrations, then further diluted to 20X assay concentrations in culture medium. The reference inhibitor Cyclosporin A (Sigma Aldrich catalog #C1832) was diluted to 1000X assay concentrations in DMSO before dilution to 20X assay concentration in culture medium.
5) The test agents, reference inhibitor, and diluted vehicle controls were added to the cells in volumes of 10 μL in triplicate and incubated for 1 hour at 37°C, 5% CO2. […]
concentrations in culture medium. The corresponding isotype controls were diluted to 5X assay concentrations in culture medium.
7) Diluted anti-CD3/anti-CD28 was added to test agent and positive control wells in volumes of 40 μL according to the plate map. Isotype controls were added to the isotype control wells.
Culture medium was added to vehicle and unstimulated control wells. […]
assay volumes of 200 μL and control concentrations of 50 ng/mL cyclosporin A (reference inhibitor), 0.1% DMSO (vehicle), 15 μg/mL anti-CD3, and 15 μg/mL anti-CD28.
8) Cells were incubated for 24 hours at 37°C, 5% CO2.
9) At the end of the incubation period, plates were centrifuged at 200g for 10 minutes. Cell culture supernatants were collected and stored at -80°C until needed for analysis.
Data Analysis and Analyte Limits of Detection
IL-2 cytokine levels in cell culture supernatants were determined using Luminex methodology per the manufacturer’s protocol using the Human Cytokine/Chemokine/Growth Factor Panel A Kit from Millipore Sigma (catalog #HCYTA-60K) with standard ranges and limits of detection in Table S9. Levels of each cytokine were interpolated from standard curves using non-linear regression analysis in Belysa Software (Millipore Sigma). The raw data in the form of median fluorescence unit was interpolated into test concentrations (pg/mL). The interpolated data were then normalized to the vehicle control
Table S9. Analyte limit of detection
Analyte Lowest standard (pg/mL) Highest standard (pg/mL) Sensitivity (pg/mL) […]
Reported mean values (pg/mL) are from three biological replicates normalized to the vehicle […]
Fig. S5. IL-2 release by Jurkat cells following stimulation with anti-CD3/anti-CD28 and treatment with the indicated test agent for 24 hours. Error bars indicate the standard error of the […]

[1] = system: calcineurin in the presence of Cyclophilin A; experiment: Calcineurin inhibition assay (phosphatase activity in the presence of Cyclophilin A); type: biochemical
Description: Calcineurin inhibition assay
Calcineurin inhibition assays were conducted by Eurofins Integrated Discovery UK Ltd (EID) to determine the effect of compounds on the activity of calcineurin in the presence of Cyclophilin A. Assays were performed in duplicate, with IC50 values calculated from mean […]
Compounds were diluted with and without immunophilin (CypA) in a 96-well plate. After addition of calcineurin/calmodulin complex, the plate was incubated at 30 °C for 10 minutes.
The addition of the RII phosphopeptide substrate initiated the reaction, and the plate was […]
The reaction was stopped by the addition of Malachite green reagent. The plate was incubated at room temperature to allow colour development (5 – 20 mins). After sufficient colour has developed, the absorbance is read at 620 nm. Blank subtracted absorbance readings are plotted against compound concentration to determine IC50 values or % inhibition at the top concentration.

Human Cyclophilin A = Human Cyclophilin A (Homo sapiens, UniProt P62937); experiment: PPIase TR-FRET competitive binding assay
Chain of Human Cyclophilin A (P62937 whole entry): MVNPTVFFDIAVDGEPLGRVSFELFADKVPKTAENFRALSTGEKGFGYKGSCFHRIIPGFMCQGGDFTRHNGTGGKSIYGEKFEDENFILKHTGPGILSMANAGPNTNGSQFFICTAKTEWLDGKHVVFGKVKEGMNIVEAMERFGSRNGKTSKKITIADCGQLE
Description: PPIase TR-FRET competitive binding assay
Cyclophilin A assays were conducted by Eurofins Integrated Discovery UK Ltd (EID) to determine the inhibitory activity of the analogues against the Human Cyclophilin A in a TR-FRET Competitive Binding assay. Assays were performed in duplicate, with Kd values calculated from mean averages. […]
binding to the CypA enzyme: the CypA enzyme, tagged with a polyhistidine sequence, forms a complex with an anti-6xHis antibody labelled with a fluorescent donor, F(d), and the enzyme […]
Compounds are diluted from DMSO stocks to 50-fold the final concentration and then in assay buffer to 2-fold the final assay plate concentration. An equal volume of compound is added to the master mix in the assay plate containing the enzyme/antibody/ligand complex, with a final concentration of detergent of 0.01%. This is incubated for 30 mins at room temperature and the plate read at 2 wavelengths (A and B) to detect emission from F(d) and F(a), respectively. The ratio B/A is calculated, blank subtracted and either expressed as a percentage of the ‘no inhibitor’ control or the blank subtracted values are plotted against the inhibitor concentration in Log10 Molar and fitted using one site Ki nonlinear regression to determine the Kd. Where possible, compound Kds are determined from duplicate data points. Each assay plate is set up with ‘no enzyme’ blanks and ‘no inhibitor’ controls, which are used to determine the Z’ value for each plate.

in vitro = settings: human
Description: Metabolic stability assay
Hepatic microsomal stability assays were conducted by Charles River Laboratories. Assays were performed in duplicate.
The stability of the test compound (1 µM) was measured following incubation at 37 °C with […] (0.5 mg protein/mL) in the presence of the cofactor, NADPH.
Incubates were prepared in duplicate, with aliquots removed at 0, 5, 10, 20 and 40 minutes and reactions terminated, and the compound was extracted by the addition of solvent. The disappearance of the parent compound was be monitored by LC-MS/MS and the half-life determined over the time-course of incubation. The half-life value was used to calculate the in vitro intrinsic clearance expressed as µL/min/mg protein.
Table S11. Metabolic Stability Data
Half- Half- Half- Clint Clint Mean Clint
Compound Cofactor life life Life (uL/min/mg (uL/min/mg (uL/min/mg Species (min) (min) (min) protn) n=1 protn) n=2 protn) (results)

[2] = Reversed-phase HPLC retention as measure of lipophilicity; settings: reversed-phase C18, Fig. S4-b; corroborates calculated lipophilicity

C/C=C/CC[C@@H](C)[C@@H](O)[C@H]1C(=O)N[C@@H](CC)C(=O)N(C)CC(=O)N(C)[C@@H](CC(C)C)C(=O)N[C@@H](C(C)C)C(=O)N(C)[C@@H](CC(C)C)C(=O)N[C@@H](C)C(=O)N[C@H](C)C(=O)N(C)[C@@H](CC(C)C)C(=O)N(C)[C@@H](CC(C)C)C(=O)N(C)[C@@H](C(C)C)C(=O)N1C [compound 21, E-homo Cyclosporine-A]
suppression of IL-2 secretion (in words) (Jurkat cells; at high concentrations (≥1 µM), Jurkat T cells): effectively suppressed IL-2 secretion | IL-2 levels, Mean (Jurkat cells; test agent 0.10 µM): 11.7 pg/mL | IL-2 levels, Mean (Jurkat cells; test agent 0.32 µM): 3.5 pg/mL | IL-2 levels, Mean (Jurkat cells; test agent 1.0 µM): 1.6 pg/mL | IL-2 levels, Mean (Jurkat cells; test agent 3.2 µM): 1.1 pg/mL | IL-2 levels, Mean (Jurkat cells; test agent 10 µM): 1.0 pg/mL | decrease in phosphatase activity compared with cyclosporine A ([1]; in vitro calcineurin phosphatase activity assay): 3.5 fold | IC50 ([1]; with CypA, calcineurin/calmodulin, RII phosphopeptide substrate, 30 °C 45 min, Malachite green A620, duplicate, IC50 from mean averages): 401 nM | Kd (Human Cyclophilin A): 76.7 nM | half-life at 1 µM (in vitro; both, liver microsomes): 32 min | Clint (uL/min/mg protn) n=1 (in vitro): 40 uL/min/mg protn | Clint (uL/min/mg protn) n=2 (in vitro): 46 uL/min/mg protn | Half-life (min) n=1 (in vitro): 35 min | Half-life (min) n=2 (in vitro): 30 min | Mean Clint (uL/min/mg protn) (in vitro): 43 uL/min/mg protn | increase of HPLC retention time upon each homologation event [2]: ~ 2.5 minutes
